Some test systems named below: A549 NSCLC; BT-549 breast; HOP-62 NSCLC; HS 578T breast; KM12 colon; SF-268 CNS; SR leukemia; SW-620 colon; UACC-257 melanoma; A498 renal.
What all share (test): inhibition of tumour cell growth, NCI panel, 48 h

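Each compound was tested at five concentrations against cells in 96-well plates for 48 hours. GI50 is the concentration that inhibits growth by half. The concentration for full growth arrest is given as TGI.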

For `COc1cc(-c2nc3sccn3c2-c2ccnc(NCCNS(=O)(=O)c3ccc(Cl)cc3)n2)ccc1F`, the GI50 in the experiment with A549 NSCLC was 3.86 µM; in the experiment on BT-549 breast it was 2.61 µM; in the experiment on HOP-62 NSCLC, 5.01 µM; in the experiment on HS 578T breast, 8.05 µM; with KM12 colon, 4.26 µM; in the experiment with SF-268 CNS it was 5.75 µM. The GI50 in the experiment with SR leukemia was 3.94 µM; with SW-620 colon it was 10.8 µM; in the experiment with UACC-257 melanoma it was 4.47 µM. In addition, the TGI in the experiment on A549 NSCLC, with BT-549 breast, in the experiment on HOP-62 NSCLC, in the experiment with HS 578T breast, in the experiment with KM12 colon and in the experiment with SF-268 CNS was over 100 µM throughout. The TGI with SR leukemia, in the experiment with SW-620 colon and in the experiment with UACC-257 melanoma was over 100 µM in each case.
For `Cn1ccnc1C(=O)/C=C/c1ccc(C(=O)Nc2ccc(S(F)(F)(F)(F)F)cc2)cc1`, the GI50 is 3.81 µM with A549 NSCLC; 2.62 µM in the experiment with BT-549 breast; 4.05 µM in the experiment on HOP-62 NSCLC; 3.4 µM with HS 578T breast; 2.77 µM with KM12 colon; 3.09 µM in the experiment with SF-268 CNS. For the same molecule, the GI50 was 0.391 µM with SR leukemia, 0.54 µM with SW-620 colon and 2.18 µM in the experiment on UACC-257 melanoma. For the same molecule, the TGI in the experiment with A549 NSCLC, in the experiment with BT-549 breast, in the experiment with HOP-62 NSCLC, in the experiment on HS 578T breast, in the experiment on KM12 colon and in the experiment with SF-268 CNS was over 14.3 µM each time. The results for the TGI in the experiment with SR leukemia, in the experiment on SW-620 colon and with UACC-257 melanoma were 10.3 µM, 5.58 µM and over 14.3 µM, respectively.
In the case of `C=C(C)C1Cc2c(cc(OC)c3c(=O)c4cccc(O)c4oc23)O1` (stereo unspecified), the TGI was 88.8 µM in the experiment with A549 NSCLC; 34.8 µM in the experiment with BT-549 breast; 36.5 µM with HOP-62 NSCLC; 49.3 µM with HS 578T breast; over 100 µM in the experiment on KM12 colon; 43.4 µM with SF-268 CNS. Also, the TGI in the experiment with SR leukemia, in the experiment with SW-620 colon and with UACC-257 melanoma was over 100 µM each time.
For the molecule `COc1cc2c(cc1O)-c1c(cnn1-c1ccc([N+](=O)[O-])cc1)CCC2`, the TGI with A498 renal was 80.3 µM; in the experiment on A549 NSCLC it was 42.4 µM; in the experiment with BT-549 breast, 76.1 µM; with HOP-62 NSCLC, over 100 µM; in the experiment on HS 578T breast it was 81.8 µM; in the experiment with KM12 colon, 31.7 µM. Also, the TGI is over 100 µM with SF-268 CNS, 91.3 µM in the experiment on SW-620 colon and 52 µM in the experiment with UACC-257 melanoma.
Regarding `CCOc1ccccc1NC(=O)c1cc2ccccc2cc1O`, the GI50 with A498 renal is 2.16 µM; in the experiment on A549 NSCLC it was 3.19 µM; in the experiment on HOP-62 NSCLC it was 3.32 µM; with HS 578T breast it was 2.85 µM; in the experiment with KM12 colon, 2.59 µM; in the experiment on SF-268 CNS it was 3.91 µM. Further, the GI50 is 3.67 µM with SW-620 colon and 2.23 µM in the experiment on UACC-257 melanoma. The TGI was 5.55 µM in the experiment on A498 renal; 11.6 µM in the experiment on A549 NSCLC; 16.7 µM with HOP-62 NSCLC; 7.14 µM in the experiment with HS 578T breast; 7.15 µM with KM12 colon; 20.4 µM in the experiment with SF-268 CNS. The TGI in the experiment with SW-620 colon came out at 12.6 µM; with UACC-257 melanoma it was 5.98 µM.
Turning to `O=C1CC(c2cccc(O)c2)C2(C(=O)NC(=S)NC2=O)C(c2cccc(O)c2)C1` (stereo unspecified), the GI50 with A498 renal, in the experiment with A549 NSCLC, in the experiment with BT-549 breast, with HOP-62 NSCLC, with HS 578T breast and in the experiment on KM12 colon was over 100 µM in each case. Further, the GI50 with SF-268 CNS, in the experiment on SW-620 colon and in the experiment on UACC-257 melanoma was over 100 µM each time. The TGI in the experiment on A498 renal, in the experiment on A549 NSCLC, in the experiment on BT-549 breast, in the experiment with HOP-62 NSCLC, with HS 578T breast and with KM12 colon was over 100 µM throughout. In addition, the TGI in the experiment on SF-268 CNS, in the experiment on SW-620 colon and in the experiment on UACC-257 melanoma was over 100 µM in each case.
`C#CCN(Cc1nc2cc(C(F)(F)F)ccc2nc1-c1ccccc1)c1ccc(OC(F)(F)F)cc1`: the GI50 was 50.1 µM in the experiment with A498 renal; 63.8 µM in the experiment on A549 NSCLC; 44.9 µM with BT-549 breast; over 100 µM in the experiment on HOP-62 NSCLC; over 100 µM in the experiment on HS 578T breast; 29.1 µM in the experiment with KM12 colon. Further, the GI50 is 47.5 µM with SF-268 CNS, 40.9 µM in the experiment with SW-620 colon and over 100 µM in the experiment with UACC-257 melanoma. Further, the TGI with A498 renal is over 100 µM; in the experiment with A549 NSCLC, over 100 µM; with BT-549 breast, over 100 µM; in the experiment with HOP-62 NSCLC it was over 100 µM; in the experiment on HS 578T breast, over 100 µM; in the experiment on KM12 colon, 78.8 µM. For the same molecule, the TGI in the experiment with SF-268 CNS, in the experiment on SW-620 colon and in the experiment with UACC-257 melanoma was over 100 µM throughout.
Turning to `CCC1C(=O)OCc2c1cc1n(c2=O)Cc2cc3ccccc3nc2-1` (stereo unspecified), the TGI with A498 renal was 49 µM; with A549 NSCLC it was over 100 µM; in the experiment on BT-549 breast, over 59.5 µM; in the experiment with HOP-62 NSCLC it was 25.5 µM; with HS 578T breast, over 100 µM; with KM12 colon, over 100 µM. Also, the TGI in the experiment on SF-268 CNS, in the experiment with SW-620 colon and with UACC-257 melanoma was over 100 µM in each case.
Take `CC(=O)CCc1ccc(OC2OC(COC(=O)c3cc(O)c(O)c(O)c3)C(O)C(O)C2OC(=O)/C=C/c2ccccc2)cc1` (stereo unspecified): the GI50 in the experiment on A498 renal is 23.2 µM; with A549 NSCLC, 25.8 µM; with BT-549 breast, 35.6 µM; in the experiment on HOP-62 NSCLC, 17.2 µM; in the experiment on HS 578T breast, 33.8 µM; in the experiment on KM12 colon, 21 µM. Besides, the GI50 is 19.3 µM in the experiment on SF-268 CNS and 35.1 µM with SW-620 colon. Moreover, the TGI with A498 renal is 48 µM; in the experiment on A549 NSCLC, 59.7 µM; with BT-549 breast it was 64.6 µM; in the experiment on HOP-62 NSCLC, 33.8 µM; in the experiment with HS 578T breast it was over 100 µM; in the experiment with KM12 colon it was 43.5 µM. Further, the figures for the TGI in the experiment with SF-268 CNS and in the experiment with SW-620 colon were 49.4 µM and 97.5 µM, respectively.

For the origin of these results see PubChem BioAssay (NCI).
